US20230364084A1, “METHODS FOR PREVENTING OR TREATING CONDITIONS RELATED TO PIKFYVE ACTIVITY” (The Regents of the University of Michigan, priority 2020, published 2023)

How the values were obtained:
[1] = tested on: prostate cancer cell lines (VCaP, LNCaP, 22RV1, LNCaP-AR, PC3, DU145); assay: long-term survival assay (14 days, crystal violet); type: cell-based, human; conditions: Homo sapiens, 336 h; range across AR positive (VCaP, LNCaP, 22RV1, LNCaP-AR) and AR-negative (PC3, DU145) cell lines, two weeks; read-out: growth inhibitory IC50
Method: (§1) Single cell suspensions were seeded into 96-well plates at a density of 1,000-30,000 cells per well. Long-term survival was determined after 14 days of drug incubation. Viable cells were fixed with 4% formaldehyde and subsequently stained with 1% crystal violet. IC50 was calculated using GraphPad Prism.

Myc-CaP cells = assay: long-term survival assay in Myc-CaP cells; type: cell-based, mouse
Method: as §1

VCaP 3D spheroids = assay: 3D spheroid culture; type: cell-based, human; conditions: VCaP 3D spheroid culture, compared with cabozantinib
Method: Nuclear red fluorescent protein-expressing VCaP cells were seeded in ultralow attachment 96-well plates and spun down at 1000 rpm for 10 minutes to pellet cells. Spheroids were formed after 3 days of incubation in a cell culture incubator, and then treatment was started. Red fluorescence intensity was monitored by IncuCyte ZOOM.

[2] = tested on: GFP-LC3 expressing DU145 cells; assay: GFP-LC3 puncta confocal imaging; type: cell-based, human
Method: For GFP-LC3 confocal imaging, GFP-LC3 expressing DU145 cells were seeded on coverslips overnight and treated with ESK981 at 300 nM for various time points. Coverslips were then fixed with 10% paraformaldehyde. Confocal images were taken using a Nikon A1 confocal microscope.

[3] = tested on: lysosomes in VCaP, LNCaP, PC3 and DU145 cells; assay: LysoTracker Green flow cytometry; type: cell-based, human; conditions: four prostate cancer cell lines, 24 hours, increasing concentrations
Method: Cells were grown in 6-well plates and treated with various drugs. After 24 hours, cells were stained with LysoTracker® Green DND-26 (Invitrogen), and green fluorescence signal was analyzed by flow cytometry.

PC3 and DU145 cells = assay: autophagic flux detection (GFP-LC3-RFP-LC3ΔG probe); type: cell-based, human; conditions: PC3 or DU145 cells, 24 hours
Method: For autophagic flux detection, 10,000 cells were plated in 96-well plates and incubated with various compounds in complete medium for 24 hours. GFP and RFP fluorescence intensities were measured on a TECAN M1000 plate reader.

[4] = tested on: mouse embryonic fibroblast (MEF) cells; assay: vacuolization and LC3 lipidation in Atg5 wild-type and knockout MEF cells; type: cell-based; conditions: 300 nM, 24 hours
CXCL10 in VCaP cells = assay: human CXCL10 ELISA of conditioned medium; type: cell-based; conditions: VCaP-conditioned medium, 300 nM, 24 hours
Method: Conditioned medium was collected after 24 hours of drug incubation. ELISA was performed using a human CXCL10 ELISA kit (Cat No. KAC2361, ThermoFisher), or a mouse CXCL10 ELISA kit (Cat No. ab214563, Abcam) according to the manufacturer's instructions.

[5] = tested on: CXCL10 in VCaP, PC3 and DU145 cells; assay: CXCL10 mRNA by qPCR in the presence of IFNγ; type: cell-based, human; conditions: PC3 and DU145, 24 hours
Method: Total RNA was extracted from cells or tissue using the miRNeasy mini kit (Qiagen), and cDNA was synthesized from 1 μg total RNA using the High Capacity cDNA Reverse Transcription Kit (Applied Biosystems). qPCR was performed using Fast SYBR Green Master Mix (Applied Biosystems) on the ViiA7 Real-Time PCR System (Applied Biosystems). The target mRNA expression was quantified using the ΔΔCt method and normalized to GAPDH expression. The primer sequences used for the SYBR green qPCR are as follows: […]

VCaP cells = assay: untargeted lipidomic analysis; type: cell-based, human; conditions: 300 nM, 6 and 24 hours
Method: Details of sample preparation and identification for untargeted lipidomic profiling have been previously reported^68. The lipids were extracted using a modified Bligh-Dyer method^69. The extraction was carried out using a 2:2:2 volume ratio of water:methanol:dichloromethane at room temperature after spiking internal standard lipids (17:0LPC, 17:0PC, 17:0PE, 17:0PG, 17:0 ceramide, 17:0SM, 17:0PS, 17:0PA, 17:0TG, 17:0MG, d5-DG, d31-TG, and 17.0-20.4 PI). The organic layer was collected and dried completely under nitrogen. The organic dried extract containing lipids was further analyzed by LC-MS-based lipidomics. The dried lipid extracts were injected onto a 1.8-μm particle 50×2.1 mm id Waters Acquity HSS T3 column (Waters, Milford, MA), which was heated to 55° C. […] As controls (QC) to monitor the profiling process, a pool of plasma and test plasma (a small aliquot from all test samples) were extracted and analyzed in tandem with the experimental samples. These controls were incorporated multiple times into the randomization scheme such that sample preparation and analytical variability could be constantly monitored. […] Identified lipids were quantified by normalizing against their respective internal standard. […] The QC samples were mainly used to remove technical outliers and lipid species that were detected below the lipid class-based lower limit of quantification.

VEGFR-1 (FLT1) = VEGFR-1 (FLT1) (Homo sapiens, UniProt P17948); conditions: cited from earlier work
Tie-2 (TEK) = Tie-2 (TEK) (Homo sapiens, UniProt Q02763); conditions: cited from earlier work
PIKfyve = PIKfyve (Homo sapiens, UniProt Q9Y2I7); assay: lipid kinase competition assay (scanLIPID panel, 22 lipid kinases); type: binding; parameters: purchased DiscoveRX (KINOMEscan scanLIPID panel; KdELECT); conditions: 1 μM ESK981, only target among 22 phosphoinositide kinases
Method: Lipid kinase competition assays for 22 lipid kinases, including clinically-relevant mutants, were performed using DiscoveRX KINOEscan® platform scanLIPID® panel. Detailed information is described on the DiscoveRX website (https://www.discoverx.com/technologies-platforms/competitive-binding-technology/kinomescan-technology-platform).

Tie-2 (TEK), sequence (Q02763 23-1124, species assumed): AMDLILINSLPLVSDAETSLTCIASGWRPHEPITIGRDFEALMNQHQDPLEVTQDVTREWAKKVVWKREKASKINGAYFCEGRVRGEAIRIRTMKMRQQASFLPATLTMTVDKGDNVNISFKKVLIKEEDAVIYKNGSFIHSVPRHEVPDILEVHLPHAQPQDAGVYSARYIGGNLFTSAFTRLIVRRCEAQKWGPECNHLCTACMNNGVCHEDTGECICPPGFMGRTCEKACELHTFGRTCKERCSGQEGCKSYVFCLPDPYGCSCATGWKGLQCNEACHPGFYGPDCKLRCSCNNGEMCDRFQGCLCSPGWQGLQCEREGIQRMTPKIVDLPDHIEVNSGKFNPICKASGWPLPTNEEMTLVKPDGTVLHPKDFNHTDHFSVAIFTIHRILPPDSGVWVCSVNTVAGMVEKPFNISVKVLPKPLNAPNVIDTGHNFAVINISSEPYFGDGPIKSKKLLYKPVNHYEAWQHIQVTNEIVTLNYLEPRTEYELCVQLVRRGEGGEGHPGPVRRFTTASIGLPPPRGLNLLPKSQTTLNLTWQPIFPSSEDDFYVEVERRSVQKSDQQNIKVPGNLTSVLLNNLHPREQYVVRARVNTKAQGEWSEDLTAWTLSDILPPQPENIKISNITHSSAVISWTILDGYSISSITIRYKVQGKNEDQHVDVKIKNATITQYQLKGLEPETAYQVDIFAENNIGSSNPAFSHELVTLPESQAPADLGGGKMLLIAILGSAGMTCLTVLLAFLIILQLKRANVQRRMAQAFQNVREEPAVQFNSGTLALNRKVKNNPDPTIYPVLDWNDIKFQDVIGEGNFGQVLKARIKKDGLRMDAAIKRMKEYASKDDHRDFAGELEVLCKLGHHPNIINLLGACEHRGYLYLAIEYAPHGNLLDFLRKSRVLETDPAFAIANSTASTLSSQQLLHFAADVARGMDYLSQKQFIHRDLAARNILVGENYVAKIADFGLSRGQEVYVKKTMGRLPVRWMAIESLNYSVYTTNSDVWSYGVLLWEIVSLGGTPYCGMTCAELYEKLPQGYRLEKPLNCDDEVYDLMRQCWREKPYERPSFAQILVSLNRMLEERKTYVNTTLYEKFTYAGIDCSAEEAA
VEGFR-1 (FLT1), sequence (P17948 27-1338, species assumed): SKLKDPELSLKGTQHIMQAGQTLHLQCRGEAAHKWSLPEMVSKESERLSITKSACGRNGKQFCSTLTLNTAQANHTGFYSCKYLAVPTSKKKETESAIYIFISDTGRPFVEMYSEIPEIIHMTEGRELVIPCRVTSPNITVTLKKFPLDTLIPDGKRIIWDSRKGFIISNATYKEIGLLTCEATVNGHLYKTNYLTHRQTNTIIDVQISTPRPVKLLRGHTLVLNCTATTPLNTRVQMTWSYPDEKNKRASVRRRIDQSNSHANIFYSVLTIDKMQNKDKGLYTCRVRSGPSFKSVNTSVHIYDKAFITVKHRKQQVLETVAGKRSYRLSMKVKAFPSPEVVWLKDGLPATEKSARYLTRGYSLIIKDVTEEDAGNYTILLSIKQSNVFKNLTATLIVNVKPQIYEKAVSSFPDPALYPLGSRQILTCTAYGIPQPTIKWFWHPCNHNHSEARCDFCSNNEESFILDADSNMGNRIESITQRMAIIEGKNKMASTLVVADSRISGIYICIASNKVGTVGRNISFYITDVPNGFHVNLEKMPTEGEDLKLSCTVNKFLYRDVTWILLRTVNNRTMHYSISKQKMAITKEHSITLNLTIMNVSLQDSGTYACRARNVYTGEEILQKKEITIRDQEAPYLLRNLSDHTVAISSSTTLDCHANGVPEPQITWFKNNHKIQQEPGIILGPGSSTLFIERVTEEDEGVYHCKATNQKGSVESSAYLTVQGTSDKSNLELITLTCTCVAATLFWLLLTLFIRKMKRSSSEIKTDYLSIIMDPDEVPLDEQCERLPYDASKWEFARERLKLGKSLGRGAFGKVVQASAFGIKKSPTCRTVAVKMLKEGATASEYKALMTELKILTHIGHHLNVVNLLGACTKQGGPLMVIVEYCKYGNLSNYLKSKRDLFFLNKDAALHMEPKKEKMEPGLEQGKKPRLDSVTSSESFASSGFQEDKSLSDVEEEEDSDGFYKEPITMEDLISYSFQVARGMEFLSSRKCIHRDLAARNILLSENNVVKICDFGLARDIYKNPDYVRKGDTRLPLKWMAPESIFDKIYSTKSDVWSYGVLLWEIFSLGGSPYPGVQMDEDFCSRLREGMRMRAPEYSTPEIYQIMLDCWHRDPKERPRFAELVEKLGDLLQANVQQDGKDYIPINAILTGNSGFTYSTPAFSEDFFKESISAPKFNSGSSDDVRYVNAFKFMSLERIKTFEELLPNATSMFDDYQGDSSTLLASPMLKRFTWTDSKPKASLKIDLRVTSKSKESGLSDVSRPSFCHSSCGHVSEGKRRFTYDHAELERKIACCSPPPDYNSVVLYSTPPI
PIKfyve, sequence (Q9Y2I7 whole entry): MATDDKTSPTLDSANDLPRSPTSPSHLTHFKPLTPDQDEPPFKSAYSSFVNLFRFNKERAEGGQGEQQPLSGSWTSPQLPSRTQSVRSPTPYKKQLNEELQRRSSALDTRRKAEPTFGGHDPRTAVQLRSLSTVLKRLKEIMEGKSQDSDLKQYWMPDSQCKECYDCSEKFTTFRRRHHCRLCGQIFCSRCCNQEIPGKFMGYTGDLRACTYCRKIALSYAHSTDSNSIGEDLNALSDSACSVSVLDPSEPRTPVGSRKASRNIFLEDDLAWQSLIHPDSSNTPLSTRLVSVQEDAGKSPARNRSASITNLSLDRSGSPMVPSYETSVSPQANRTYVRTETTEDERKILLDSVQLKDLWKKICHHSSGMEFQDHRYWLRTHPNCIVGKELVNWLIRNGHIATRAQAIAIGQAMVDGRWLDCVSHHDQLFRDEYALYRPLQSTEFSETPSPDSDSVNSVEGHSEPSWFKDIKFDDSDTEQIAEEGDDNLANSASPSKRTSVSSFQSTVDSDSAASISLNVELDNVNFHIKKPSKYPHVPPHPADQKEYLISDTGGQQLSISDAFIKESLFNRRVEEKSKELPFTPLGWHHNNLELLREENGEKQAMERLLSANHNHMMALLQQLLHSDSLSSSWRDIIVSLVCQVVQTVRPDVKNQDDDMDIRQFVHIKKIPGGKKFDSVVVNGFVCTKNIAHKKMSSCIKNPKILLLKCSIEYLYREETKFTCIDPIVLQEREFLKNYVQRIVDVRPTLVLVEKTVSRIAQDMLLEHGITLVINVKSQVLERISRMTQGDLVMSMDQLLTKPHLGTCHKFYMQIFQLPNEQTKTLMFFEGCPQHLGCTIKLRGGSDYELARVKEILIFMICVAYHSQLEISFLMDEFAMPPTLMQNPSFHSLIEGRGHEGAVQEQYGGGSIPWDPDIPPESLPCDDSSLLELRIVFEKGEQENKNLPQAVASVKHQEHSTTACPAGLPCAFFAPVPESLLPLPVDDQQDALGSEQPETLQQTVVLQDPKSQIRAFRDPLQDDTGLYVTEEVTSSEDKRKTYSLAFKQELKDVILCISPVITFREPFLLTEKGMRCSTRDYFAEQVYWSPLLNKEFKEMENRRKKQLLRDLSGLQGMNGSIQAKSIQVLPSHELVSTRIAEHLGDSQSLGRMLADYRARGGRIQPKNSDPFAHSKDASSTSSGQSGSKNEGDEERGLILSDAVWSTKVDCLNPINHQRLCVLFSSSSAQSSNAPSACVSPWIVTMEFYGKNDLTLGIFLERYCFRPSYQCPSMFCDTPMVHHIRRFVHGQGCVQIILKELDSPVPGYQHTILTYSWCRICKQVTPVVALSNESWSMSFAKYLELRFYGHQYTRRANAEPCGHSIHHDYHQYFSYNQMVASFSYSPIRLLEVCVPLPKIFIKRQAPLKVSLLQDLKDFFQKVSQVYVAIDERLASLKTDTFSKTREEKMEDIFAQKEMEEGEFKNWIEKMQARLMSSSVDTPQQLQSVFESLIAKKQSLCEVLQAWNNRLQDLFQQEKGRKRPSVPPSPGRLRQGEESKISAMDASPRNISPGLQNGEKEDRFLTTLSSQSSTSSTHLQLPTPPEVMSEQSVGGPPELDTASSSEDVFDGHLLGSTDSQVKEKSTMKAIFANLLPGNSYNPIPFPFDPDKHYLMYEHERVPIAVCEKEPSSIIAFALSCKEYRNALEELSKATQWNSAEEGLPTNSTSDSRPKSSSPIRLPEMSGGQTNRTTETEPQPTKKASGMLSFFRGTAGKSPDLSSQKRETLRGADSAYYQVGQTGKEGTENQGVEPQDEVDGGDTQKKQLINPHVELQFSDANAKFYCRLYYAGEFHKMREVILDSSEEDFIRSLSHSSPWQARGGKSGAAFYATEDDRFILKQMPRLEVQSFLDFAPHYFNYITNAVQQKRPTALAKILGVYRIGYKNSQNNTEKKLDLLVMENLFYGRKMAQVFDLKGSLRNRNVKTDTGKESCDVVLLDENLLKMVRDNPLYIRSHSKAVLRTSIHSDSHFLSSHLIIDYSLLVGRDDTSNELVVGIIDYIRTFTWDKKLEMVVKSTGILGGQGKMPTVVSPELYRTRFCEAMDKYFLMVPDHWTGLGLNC

With CC(C)Cn1c2ccc(Nc3ncccn3)cc2c2c3c(c4c(c21)CCc1nn(C)cc1-4)C(=O)NC3 [ESK981, 13-isobutyl-4-methyl-10-(pyrimidin-2-ylamino)-1,2,4,7,8,13-hexahydro-6H-indazolo[5,4-a]pyrrolo[3,4-c]carbazol-6-one] the IC50 [1] was 35 to 192 nM, the “efficacy compared with crizotinib and cabozantinib” value (Myc-CaP cells) was “most efficacious compound” and the IC50 (Myc-CaP cells; Mus musculus, read-out: growth inhibitory IC50) was 35 nM. For the same compound, the “inhibitory effect on 3D spheroids” value (VCaP 3D spheroids) was “more robust inhibitory effect at relatively lower concentrations than cabozantinib”, the “time to vacuole formation” value [2] was “only observed after four hours of treatment” and the “time to LC3 puncta formation” value ([2]; 300 nM) was at most 1 h. For the same compound, the “lysosome quantity (LysoTracker Green)” value [3] was “Increased ESK981 lysosome quantity was observed in a dose-dependent manner”, the “autophagic flux (GFP/RFP ratio)” value (PC3 and DU145 cells) was “low autophagic flux” and the LC3 lipidation ([4]; Atg5 knockout MEFs) was “abolished”. The vacuolization ([4]; autophagy-deficient Atg5−/− MEFs) was “largely attenuated”, the vacuolization ([4]; wild-type MEF cells) was “significantly induced” and the “rank in inducing CXCL10 levels among compound libraries” value (CXCL10 in VCaP cells) was “ranked first in inducing CXCL10 levels in the tyrosine kinase inhibitor library and second in the autophagy-linked compound library”. The “expression of CXCL10 in the presence of IFNγ” value [5] was “enhance expression of CXCL10”, the major lipid changed (VCaP cells) was “phosphatidylethanolamine (PE) was the major lipid increased” and the activity against kinase (VEGFR-1 (FLT1)) was “potent activity”. For the same compound, the activity against kinase (Tie-2 (TEK)) was “potent activity” and the “competition in affinity binding screen” value (PIKfyve) was “completely competed away”.
